# Data published in US12157732B2, “eIF4E inhibitors and uses thereof” (PIC Therapeutics, Inc., priority 2021, dated 2024).
# Target: T1, Human eIF4E (aa 28-217) / biotin labeled 4G2 peptide (Homo sapiens, UniProt P06730)
# T1 construct: Human eIF4E (aa 28-217) with a C-terminal His-tag; made in house
# Assay: Human eIF4E/4G2 binding assay (TR-FRET)
# Conditions: TR-FRET eIF4E/4G2 peptide binding; 4 hours preincubation with eIF4E at room temperature
# Procedure: Example 3. Compound Testing in Human eIF4E/4G2 Binding Assay
# Human eIF4E (aa 28-217) with a C-terminal His-tag was expressed in E. coli in inclusion bodies. The protein was solubilized with 8 M urea and purified under denaturing conditions using nickel-charged HisTrap HP columns (GE Healthcare). The purified protein was then refolded by diluting in 20 mM Hepes pH 7.0, 0.5 M NaCl, 1 mM DTT, 1 mM EDTA, 0.5 M arginine plus 6 M urea, and then dialyzing overnight into the same buffer without the urea. The protein was further dialyzed into 20 mM Hepes, pH 6.5, 50 mM NaCl, 1 mM EDTA, 1 mM DTT, and concentrated using Hitrap SP sepharose FF columns (GE Healthcare). The concentrated protein was dialyzed into 20 mM Hepes, pH 7.0, 0.5M NaCl, 5 mM DTT and 10% glycerol, and stored at −80° C. until use.
# Test compounds (3.43 mM stock in DMSO) were diluted 2-fold in series in DMSO (10 concentration points). Compound solutions (1.2 μl/well) were added into black 384-well polypropylene microplates (Matrix, Thermal Scientific). Twenty-two microliters per well of Assay Buffer (50 mM NaPi, pH 6.5, 50 mM KCl, 1 mM DTT and 0.5 mg/ml gamma globulin) and eight microliters per well of 82.5 nM purified eIF4E in Assay Buffer were added. The samples were incubated at room temperature (20-23° C.) for 4 hours. Biotin labeled 4G2 peptide (Ac-Lys-Gln-Tyr-Asp-Arg-Glu-Phe-Leu-Leu-Asp-Phe-Gln-Phe-Met-Pro-Lys(Aha-Bio)-NH2, 1.75 μM stock in DMSO) was diluted to 0.14 μM in Assay Buffer (without DTT) and 5 μl/well was added. The samples were incubated at room temperature for 20 min. Five microliters per well of 6.4 nM Eu-streptavidin (Eu-SA, Perkin Elmer) and 80 nM Allophycocyanin (APC)-anti His antibody (Columbia Biosciences) in Assay Buffer (without DTT) were then added and the samples were incubated at room temperature for 20 min.
# Assay signals were monitored by reading excitation at 340 nm and emission fluorescence at 615 nm and 665 nm on an Envision reader (Perkin Elmer). Normalized TR-FRET (time-resolved fluorescence resonance energy transfer) assay signal (Rn) was calculated by the formula: Rn=[(A−Ba−C×D)/(D−Bd)]×(Dc−Bd) Where A is the fluorescence intensity of the sample at 665 nm, D is the fluorescence intensity of the sample at 615 nm, Ba and Bd are plate backgrounds at 665 nm and 615 nm, respectively, Dc is the fluorescence intensity of 0.78 nM Eu-SA in the assay buffer at 615 nm The cross-talk factor (C) is determined by the following formula: C=(Ac−Ba)/(Dc−Bd) Where Ac is the fluorescence intensity of 0.78 nM Eu-SA in the assay buffer at 665 nm.
# IC50 values were calculated using xLFit program (IDBS). Table 3 below lists IC50 of some compounds, wherein A represents IC50<0.5 μM; B represents 500 nM<IC50<1 μM; and C represents IC50>1 μM.
# T1 sequence (P06730 28-217): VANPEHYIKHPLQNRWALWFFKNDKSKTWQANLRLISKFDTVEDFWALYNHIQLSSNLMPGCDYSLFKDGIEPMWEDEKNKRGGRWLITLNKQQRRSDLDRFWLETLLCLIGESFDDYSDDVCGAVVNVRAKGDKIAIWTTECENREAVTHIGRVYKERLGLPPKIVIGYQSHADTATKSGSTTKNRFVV
row,IC50 [nM],Structure (SMILES)
1,< 500,"CC(C)c1nc(Nc2ncc(C(F)(F)F)cc2C(=O)O)sc1-c1ccc(Cl)c(Cl)c1 [I-1, 2-(5-(3,4-Dichlorophenyl)-4-Isopropylthiazol-2-Ylamino)-5-(trifluoromethyl)nicotinic acid]"
2,< 500,"CC(C)c1nc(Nc2ncc(-c3cccs3)cc2C(=O)O)sc1-c1ccc(Cl)c(Cl)c1 [I-2, 2-(5-(3,4-Dichlorophenyl)-4-Isopropylthiazol-2-Ylamino)-5-(Thiophen-2-yl)nicotinic acid]"
3,< 500,CC(C)CCc1nc(Nc2ncc(-c3cccs3)cc2C(=O)O)sc1-c1ccc(Cl)c(Cl)c1 [I-3]
4,< 500,CC(C)CCc1nc(Nc2ncc(C(F)(F)F)cc2C(=O)O)sc1-c1ccc(Cl)c(Cl)c1 [I-4]
5,< 500,CC(C)CCc1nc(Nc2ccsc2C(=O)O)sc1-c1ccc(Cl)c(Cl)c1 [I-5]
6,< 500,CC(C)CCc1nc(Nc2cc(-c3ccccc3)sc2C(=O)O)sc1-c1ccc(Cl)c(Cl)c1 [I-6]
7,< 500,CC(C)CCc1nc(Nc2ncccc2C(=O)O)sc1-c1ccc(Cl)c(Cl)c1 [I-7]
8,< 500,CC(C)CCc1nc(Nc2ncc(-c3cccs3)cc2C(=O)O)sc1-c1ccccc1 [I-8]
9,500 to 1000,CC(C)CCc1nc(Nc2ncc(-c3cccs3)cc2C(=O)O)sc1-c1ccc(S(C)(=O)=O)cc1 [I-9]
10,500 to 1000,CC(C)CCc1nc(Nc2ncc(C(F)(F)F)cc2C(=O)O)sc1-c1ccc(S(C)(=O)=O)cc1 [I-10]
11,< 500,CC(C)CCc1nc(Nc2cc(C3CCCC3)sc2C(=O)O)sc1-c1ccc(Cl)c(Cl)c1 [I-11]
12,< 500,CC(C)CCc1nc(Nc2cc(C3CCCC3)sc2C(=O)O)sc1-c1ccc(Oc2ccccc2)cc1 [I-12]
13,< 500,CC(C)CCc1nc(Nc2cc(C3CCCC3)sc2C(=O)O)sc1-c1ccc(-n2ccccc2=O)cc1 [I-13]
14,< 500,CC(C)CCc1nc(Nc2ncc(-c3cccs3)cc2C(=O)O)sc1-c1ccc(Oc2ccccc2)cc1 [I-14]
15,< 500,CC(C)CCc1nc(Nc2ncc(C(F)(F)F)cc2C(=O)O)sc1-c1ccc(-c2ccccn2)cc1 [I-15]
16,> 1000,"CC(C)CCc1nc(Nc2ncc(C(F)(F)F)cc2C(=O)O)sc1-c1ccc(N2CCOCC2)cc1 [I-16, 2-(4-Isopentyl-5-(4-Morpholinophenyl)Thiazol-2-Ylamino)-5-(trifluoromethyl)nicotinic acid]"
17,< 500,CC(C)CCc1nc(Nc2ncc(-c3cccs3)cc2C(=O)O)sc1-c1ccc(OC(F)(F)F)cc1 [I-17]
18,< 500,CC(C)CCc1nc(Nc2cc(C3CCCC3)sc2C(=O)O)sc1-c1ccc(OC(F)(F)F)cc1 [I-18]
19,500 to 1000,CC(C)c1nc(Nc2ncc(C(F)(F)F)cc2C(=O)O)sc1-c1ccc2ccccc2c1 [I-19]
20,500 to 1000,CC(C)c1nc(Nc2ncc(C(F)(F)F)cc2C(=O)O)sc1-c1cccc2ccccc12 [I-20]
21,500 to 1000,CC(C)c1nc(Nc2ncc(C(F)(F)F)cc2C(=O)O)sc1-c1cccs1 [I-21]
22,500 to 1000,CC(C)c1nc(Nc2ncc(C(F)(F)F)cc2C(=O)O)sc1-c1ccsc1 [I-22]
23,500 to 1000,CC(C)c1nc(Nc2ncc(C(F)(F)F)cc2C(=O)O)sc1C1=CCCCC1 [I-23]
24,< 500,"CC(C)c1nc(Nc2ncc(C(F)(F)F)cc2C(=O)O)sc1-c1ccc(-c2cccs2)cc1 [I-24, 2-(4-Isopropyl-5-(4-(Thiophen-2-Yl)Phenyl)Thiazol-2-Ylamino)-5-(trifluoromethyl)nicotinic acid]"
25,500 to 1000,CC(C)c1nc(Nc2ncc(C(F)(F)F)cc2C(=O)O)sc1-c1ccc(C(F)(F)F)cc1 [I-25]
26,500 to 1000,"CC(C)c1nc(Nc2ncc(-c3ccccc3)cc2C(=O)O)sc1C1=CCCCC1 [I-27, 2-(5-cyclohexenyl-4-isopropylthiazol-2-ylamino)-5-phenylnicotinic acid]"

row,IC50 [nM],Structure (SMILES)
1,< 500,CC(C)Cc1nc(Nc2ncc(C(F)(F)F)cc2C(=O)O)sc1-c1ccc2ccccc2c1 [I-30]
2,500 to 1000,"CC(C)c1nc(Nc2ncc(C(F)(F)F)cc2C(=O)O)sc1-c1ccc(Cl)cc1Cl [I-31, 2-(5-(2,4-dichlorophenyl)-4-isopropylthiazol-2-ylamino)-5-(trifluoromethyl)nicotinic acid]"
3,500 to 1000,"CC(C)c1nc(Nc2ncc(C(F)(F)F)cc2C(=O)O)sc1-c1csc2ccccc12 [I-32, 2-(5-(benzo[b]thiophen-3-yl)-4-isopropylthiazol-2-ylamino)-5-(trifluoromethyl)nicotinic acid]"
4,500 to 1000,CC(C)c1nc(Nc2ncc(C(F)(F)F)cc2C(=O)O)sc1-c1ccc(C(F)(F)F)cc1Cl [I-33]
5,500 to 1000,CC(C)c1ccc(-c2sc(Nc3ncc(C(F)(F)F)cc3C(=O)O)nc2C(C)C)cc1 [I-34]
6,< 500,CC(C)c1nc(Nc2ncc(C(F)(F)F)cc2C(=O)O)sc1-c1ccc(C(C)(C)C)cc1 [I-35]
7,500 to 1000,CC(C)c1nc(Nc2ncc(C(F)(F)F)cc2C(=O)O)sc1-c1ccc(F)cc1F [I-36]
8,500 to 1000,"CC(C)c1nc(Nc2ncc(C(F)(F)F)cc2C(=O)O)sc1-c1ccc(Cl)cc1F [I-37, 2-(5-(4-chloro-2-fluorophenyl)-4-isopropylthiazol-2-ylamino)-5-(trifluoromethyl)nicotinic acid]"
9,< 500,CC(C)c1nc(Nc2ncc(C(F)(F)F)cc2C(=O)O)sc1-c1ccc(-c2ccccc2)cc1 [I-38]
10,< 500,CC(C)c1nc(Nc2ncc(C(F)(F)F)cc2C(=O)O)sc1-c1ccc(C(F)(F)F)c(F)c1 [I-39]
11,500 to 1000,COc1cc(Cl)ccc1-c1sc(Nc2ncc(C(F)(F)F)cc2C(=O)O)nc1C(C)C [I-40]
12,500 to 1000,COc1ccc(-c2sc(Nc3ncc(C(F)(F)F)cc3C(=O)O)nc2C(C)C)cc1 [I-41]
13,> 1000,COc1ccc(-c2sc(Nc3ncc(C(F)(F)F)cc3C(=O)O)nc2C(C)C)cc1OC [I-42]
14,500 to 1000,COc1ccc(-c2sc(Nc3ncc(C(F)(F)F)cc3C(=O)O)nc2C(C)C)cc1F [I-43]
15,500 to 1000,CC(C)c1nc(Nc2ncc(C(F)(F)F)cc2C(=O)O)sc1-c1ccc(OC(F)F)cc1 [I-44]
16,< 500,CC(C)c1nc(Nc2ncc(C(F)(F)F)cc2C(=O)O)sc1-c1ccc(OCc2ccccc2)cc1 [I-45]
17,> 1000,"CC(C)c1nc(Nc2ncc(C(F)(F)F)cc2C(=O)O)sc1-c1ccccn1 [I-46, 2-(4-isopropyl-5-(pyridin-2-yl)thiazol-2-ylamino)-5-(trifluoromethyl)nicotinic acid]"
18,> 1000,COc1ccc(-c2sc(Nc3ncc(C(F)(F)F)cc3C(=O)O)nc2C(C)C)c(OC)c1 [I-47]
19,500 to 1000,CC(C)c1nc(Nc2ncc(C(F)(F)F)cc2C(=O)O)sc1-c1ccc(Cl)s1 [I-48]
20,< 500,CC(C)c1nc(Nc2ncc(C(F)(F)F)cc2C(=O)O)sc1-c1ccc(-c2ccccc2)s1 [I-49]
21,500 to 1000,COc1ccc(-c2sc(Nc3ncc(-c4cccs4)cc3C(=O)O)nc2C(C)C)cc1Cl [I-50]
22,500 to 1000,COc1ccc(-c2sc(Nc3ncc(C(F)(F)F)cc3C(=O)O)nc2C(C)C)cc1Cl [I-51]
23,< 500,"COc1ccc(-c2sc(Nc3ncc(-c4cccs4)cc3C(=O)O)nc2C2CC2)cc1Cl [I-52, 2-((5-(3-chloro-4-methoxyphenyl)-4-cyclopropylthiazol-2-yl)amino)-5-(thiophen-2-yl)nicotinic acid]"
24,500 to 1000,COc1ccc(-c2sc(Nc3ncc(-c4cccs4)cc3C(=O)O)nc2C)cc1Cl [I-53]
25,< 500,COc1ccc(-c2sc(Nc3ncc(-c4cccs4)cc3C(=O)O)nc2C2CC2)cc1 [I-54]
26,500 to 1000,COc1cc(-c2sc(Nc3ncc(-c4cccs4)cc3C(=O)O)nc2CC(C)C)ccc1F [I-55]
